Experimental data reported in patent US9765092B2, “Tricyclic piperidine compounds” (ACTELION PHARMACEUTICALS LTD, priority 2013, dated 2017).

These compounds were tested against human TPH1 (Homo sapiens (Human), UniProt P17752) (assay: Biochemical in vitro assay using fluorescence readout (TPH1 inhibition)). Settings: full length human TPH1, 40 μM L-tryptophan, 15° C., 60 minutes, fluorescence at 540 nm; mean if determined several times.
human TPH1, sequence (P17752 whole entry): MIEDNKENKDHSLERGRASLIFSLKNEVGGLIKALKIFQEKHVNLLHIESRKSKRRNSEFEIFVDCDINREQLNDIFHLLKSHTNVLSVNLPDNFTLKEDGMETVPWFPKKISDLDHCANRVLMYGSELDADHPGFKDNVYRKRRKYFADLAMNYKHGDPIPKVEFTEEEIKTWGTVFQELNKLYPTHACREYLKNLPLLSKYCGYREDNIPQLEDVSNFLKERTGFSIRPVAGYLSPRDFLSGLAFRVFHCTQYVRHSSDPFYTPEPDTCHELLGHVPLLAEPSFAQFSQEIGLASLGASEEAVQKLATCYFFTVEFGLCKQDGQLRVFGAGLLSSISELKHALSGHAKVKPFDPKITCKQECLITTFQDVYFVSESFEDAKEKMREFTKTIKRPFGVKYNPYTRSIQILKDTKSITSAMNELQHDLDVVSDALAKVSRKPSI

Q: `Cc1nn2c3c(nc2s1)CCN(C(=O)COc1ccc(N2CCOCC2)nc1Cl)C3c1nc(C(N)=O)cs1` (centres unmarked) [Example 1.48.1, 2-(6-(2-((2-Chloro-6-morpholinopyridin-3-yl)oxy)acetyl)-2-methyl-5,6,7,8-tetrahydro-[1,3,4]thiadiazolo[2′,3′:2,3]imidazo[4,5-c]pyridin-5-yl)thiazole-4-carboxamide] was tested. Which IC50 did it give?
A: 5 nM

Q: For `Cc1nn2c3c(nc2s1)CCN(C(=O)COc1ccc(N2CCOCC2)nc1Cl)C3c1csc(C(=O)O)c1` (centres unmarked) [Example 1.38.1, 4-(6-(2-((2-Chloro-6-morpholinopyridin-3-yl)oxy)acetyl)-2-methyl-5,6,7,8-tetrahydro-[1,3,4]thiadiazolo[2′,3′:2,3]imidazo[4,5-c]pyridin-5-yl)thiophene-2-carboxylic acid], which IC50 is on record?
A: 113 nM

Q: Which IC50 does the source give for `COC(=O)CCS(=O)(=O)c1ccc(OCC(=O)N2CCc3nc4sc(C)nn4c3C2c2ccc(Cl)cc2F)c(Cl)n1` (centres unmarked) [Example 1.4.11, Methyl 3-((6-chloro-5-(2-(5-(4-chloro-2-fluorophenyl)-2-methyl-7,8-dihydro-[1,3,4]thiadiazolo[2′,3′:2,3]imidazo[4,5-c]pyridin-6(5H)-yl)-2-oxoethoxy)pyridin-2-yl)sulfonyl)propanoate] here?
A: 57 nM

Same assay, conditions: human TPH1, fluorescence readout

Q: How did the IC50 turn out when `Cc1noc(C)c1C1c2c(nc3sccn23)CCN1C(=O)COc1ccc(C(F)(F)F)cc1Cl` (centres unmarked) [Example 6.5.3, 2-(2-chloro-4-(trifluoromethyl)phenoxy)-1-(5-(3,5-di-methylisoxazol-4-yl)-7,8-dihydrothiazolo[2′,3′:2,3]-imidazo[4,5-c]pyridin-6(5H)-yl)ethanone] was run?
A: 85 nM

Q: For `CCc1nc(NS(C)(=O)=O)ccc1OCC(=O)N1CCc2nc3sc(C)nn3c2C1c1ccc(Cl)cc1F` (centres unmarked) [Example 1.4.51, N-(5-(2-(5-(4-chloro-2-fluorophenyl)-2-methyl-7,8-dihydro-[1,3,4]thiadiazolo[2′,3′:2,3]imidazo[4,5-c]-pyridin-6(5H)-yl)-2-oxoethoxy)-6-ethylpyridin-2-yl)methanesulfonamide], which IC50 is on record?
A: 12 nM

Q: Which IC50 does the source give for `Cc1nn2c3c(nc2s1)CCN(C(=O)COc1ccc(C(=O)N(C)C)nc1Cl)C3c1ccc(Cl)cc1F` (centres unmarked) [Example 1.4.42, 6-chloro-5-(2-(5-(4-chloro-2-fluorophenyl)-2-methyl-7,8-dihydro-[1,3,4]thiadiazolo[2′,3′:2,3]imidazo[4,5-c]pyridin-6(5H)-yl)-2-oxoethoxy)-N,N-dimethylpicolinamide] here?
A: 18 nM

Q: With `CCc1nc(C)ccc1OCC(=O)N1CCc2nc3sc(C)nn3c2C1c1ncc(C2CC2)cc1F` (centres unmarked) [Example 1.14.2, 1-(5-(5-cyclopropyl-3-fluoropyridin-2-yl)-2-methyl-7,8-dihydro-[1,3,4]thiadiazolo[2′,3′:2,3]imidazo[4,5-c]pyridin-6(5H)-yl)-2-((2-ethyl-6-methylpyridin-3-yl)oxy)ethanone] as the compound, how does the IC50 read?
A: 6 nM

Q: Which IC50 does the source give for `Cc1cc(Cl)ccc1OCC(=O)N1CCc2nc3sccn3c2C1c1cccnc1F` (centres unmarked) [Example 6.2.5, 2-(4-chloro-2-methylphenoxy)-1-(5-(2-fluoropyridin-3-yl)-7,8-dihydrothiazolo[2′,3′:2,3]imidazo[4,5-c]pyridin-6(5H)-yl)ethanone] here?
A: 26 nM

Q: For `COc1ccc(C2c3c(nc4sc(C)nn34)CCN2C(=O)COc2ccc(C(=O)NC3CC3)nc2Cl)c(F)c1` (centres unmarked) [Example 1.3.3, 6-chloro-N-cyclopropyl-5-(2-(5-(2-fluoro-4-methoxyphenyl)-2-methyl-7,8-dihydro-[1,3,4]thiadiazolo[2′,3′:2,3]imidazo[4,5-c]pyridin-6(5H)-yl)-2-oxoethoxy)picolinamide], which IC50 is on record?
A: 10 nM

Q: With `Cc1nn2c3c(nc2s1)CCN(C(=O)COc1ccc(C(F)(F)F)nc1Cl)C3c1sc(C(=O)N(C)C)cc1F` (centres unmarked) [Example 1.24.2, 5-(6-(2-((2-chloro-6-(trifluoromethyl)pyridin-3-yl)oxy)acetyl)-2-methyl-5,6,7,8-tetrahydro-[1,3,4]thiadiazolo [2′,3′:2,3]imidazo[4,5-c]pyridin-5-yl)-4-fluoro-N,N-dimethylthiophene-2-carboxamide] as the compound, how does the IC50 read?
A: 22 nM

Q: How did the IC50 turn out when `COc1ccc(C2c3c(nc4sccn34)CCN2C(=O)COc2ccc3ccccc3c2)cc1OC` (centres unmarked) [Example 6.1.1, 1-(5-(3,4-dimethoxyphenyl)-7,8-dihydrothiazolo-[2′,3′:2,3]imidazo[4,5-c]pyridin-6(5H)-yl)-2-(naphthalen-2-yloxy)ethanone] was run?
A: 4 nM

Q: How did the IC50 turn out when `Cc1ccc(OCC(=O)N2CCc3nc4sccn4c3C2c2cccnc2F)cc1` (centres unmarked) [Example 6.2.3, 1-(5-(2-fluoropyridin-3-yl)-7,8-dihydrothiazolo[2′,3′:2,3]-imidazo[4,5-c]pyridin-6(5H)-yl)-2-(p-tolyloxy)ethanone] was run?
A: 52 nM

Q: For `O=C(COc1cccc(C(F)(F)F)c1Cl)N1CCc2nc3sccn3c2C1c1nc2ccccc2s1` (centres unmarked) [Example 6.12.5, 1-(5-(benzo[d]thiazol-2-yl)-7,8-dihydrothiazolo-[2′,3′:2,3]imidazo[4,5-c]pyridin-6(5H)-yl)-2-(2-chloro-3-(trifluoromethyl)phenoxy)ethanone], which IC50 is on record?
A: 28 nM

Q: Which IC50 does the source give for `Cc1nn2c3c(nc2s1)CCN(C(=O)COc1cnc(N(C)C)nc1Cl)C3c1sccc1F` (centres unmarked) [Example 1.23.11, 2-((4-chloro-2-(dimethylamino)pyrimidin-5-yl)oxy)-1-(5-(3-fluorothiophen-2-yl)-2-methyl-7,8-dihydro-[1,3,4]thiadiazolo[2′,3′:2,3]imidazo[4,5-c]pyridin-6(5H)-yl)ethanone] here?
A: 6 nM

Q: How did the IC50 turn out when `CCc1nc(Cl)ncc1OCC(=O)N1CCc2nc3sc(C)nn3c2C1c1ccc(C)c(F)c1F` (centres unmarked) [Example 1.61.4, 2-((2-chloro-4-ethylpyrimidin-5-yl)oxy)-1-(5-(2,3-difluoro-4-methylphenyl)-2-methyl-7,8-dihydro-[1,3,4]thiadiazolo[2′,3′:2,3]imidazo[4,5-c]pyridin-6(5H)-yl)ethanone] was run?
A: 49 nM

Q: How did the IC50 turn out when `Cc1nn2c3c(nc2s1)CCN(C(=O)COc1ccc(NS(C)(=O)=O)nc1Cl)C3c1sc(C(F)(F)F)nc1C` (centres unmarked) [Example 1.76.1, N-(6-chloro-5-(2-(2-methyl-5-(4-methyl-2-(trifluoromethyl)thiazol-5-yl)-7,8-dihydro-[1,3,4]thiadiazolo[2′,3′:2,3]imidazo[4,5-c]pyridin-6(5H)-yl)-2-oxoethoxy)pyridin-2-yl)methanesulfonamide] was run?
A: 20 nM

Q: How did the IC50 turn out when `Cc1nn2c3c(nc2s1)CCN(C(=O)COc1ccc(C(=O)NC2CC2)nc1Cl)C3c1ccc(C(C)(C)O)cc1F` (centres unmarked) [Example 1.80.2, 6-chloro-N-cyclopropyl-5-(2-(5-(2-fluoro-4-(2-hydroxypropan-2-yl)phenyl)-2-methyl-7,8-dihydro-[1,3,4]thiadiazolo[2′,3′:2,3]imidazo[4,5-c]pyridin-6(5H)-yl)-2-oxoethoxy)picolinamide] was run?
A: 65 nM

Q: How did the IC50 turn out when `Cc1nn2c3c(nc2s1)CCN(C(=O)COc1ccc(C(=O)N(C)C)nc1Cl)C3c1cnc(C(=O)N(C)C)s1` (centres unmarked) [Example 1.34.2, 5-(6-(2-((2-chloro-6-(dimethylcarbamoyl)pyridin-3-yl)oxy)acetyl)-2-methyl-5,6,7,8-tetrahydro-[1,3,4]thiadiazolo [2′,3′:2,3]imidazo[4,5-c]pyridin-5-yl)-N,N-dimethylthiazole-2-carboxamide] was run?
A: 9 nM

Q: `COC(=O)c1ccc(C2c3c(nc4sc(C)nn34)CCN2C(=O)COc2ccc(C(=O)NC3CC3)nc2Cl)c(F)c1` (centres unmarked) [Example 1.79.2, methyl-4-(6-(2-((2-chloro-6-(cyclopropylcarbamoyl)pyridin-3-yl)oxy)acetyl)-2-methyl-5,6,7,8-tetrahydro-[1,3,4]thiadiazolo[2′,3′:2,3]imidazo[4,5-c]pyridin-5-yl)-3-fluorobenzoate] was tested. Which IC50 did it give?
A: 21 nM

Q: Which IC50 does the source give for `Cc1nn2c3c(nc2s1)CCN(C(=O)COc1ccc(N2CCOCC2)nc1Cl)C3c1scnc1C` (centres unmarked) [Example 1.32.1, 2-((2-chloro-6-morpholinopyridin-3-yl)oxy)-1-(2-methyl-5-(4-methylthiazol-5-yl)-7,8-dihydro-[1,3,4]thiadiazolo [2′,3′:2,3]imidazo[4,5-c]pyridin-6(5H)-yl)ethanone] here?
A: 2 nM

Q: `CNC(=O)c1ccc(OCC(=O)N2CCc3nc4sc(C)nn4c3C2c2sc(C(=O)N(C)C)cc2F)c(Cl)n1` (centres unmarked) [Example 1.24.10, 6-chloro-5-(2-(5-(5-(dimethylcarbamoyl)-3-fluoro-thiophen-2-yl)-2-methyl-7,8-dihydro-[1,3,4]thiadiazolo[2′,3′:2,3]imidazo[4,5-c]pyridin-6(5H)-yl)-2-oxoethoxy)-N-methylpicolinamide] was tested. Which IC50 did it give?
A: 20 nM

Q: For `O=C(COc1ccc(CN2CCOCC2)cc1Cl)N1CCc2nc3sccn3c2C1c1cccnc1F` (centres unmarked) [Example 6.2.1, 2-(2-chloro-4-(morpholinomethyl)phenoxy)-1-(5-(2-fluoropyridin-3-yl)-7,8-dihydrothiazolo[2′,3′:2,3]imidazo[4,5-c]pyridin-6(5H)-yl)ethanone], which IC50 is on record?
A: 12 nM

Q: How did the IC50 turn out when `CCc1ncccc1OCC(=O)N1CCc2nc3sc(C)nn3c2C1c1nc(-c2ccccc2)no1` (centres unmarked) [Example 1.11.2, 2-((2-ethylpyridin-3-yl)oxy)-1-(2-methyl-5-(3-phenyl-1,2,4-oxadiazol-5-yl)-7,8-dihydro-[1,3,4]thiadiazolo[2′,3′:2,3]imidazo[4,5-c]pyridin-6(5H)-yl)ethanone] was run?
A: 141 nM

Q: `Cc1nn2c3c(nc2s1)CCN(C(=O)COc1ccc[n+]([O-])c1Cl)C3c1ccc(C2CC2)cc1F` (centres unmarked) [Example 1.6.19, 2-chloro-3-(2-(5-(4-cyclopropyl-2-fluorophenyl)-2-methyl-7,8-dihydro-[1,3,4]thiadiazolo[2′,3′:2,3]imidazo[4,5-c]pyridin-6(5H)-yl)-2-oxoethoxy)pyridine-1-oxide] was tested. Which IC50 did it give?
A: 250 nM

Q: With `Cc1nn(C)c(C)c1C1c2c(nc3sccn23)CCN1C(=O)COc1ccc(C(F)(F)F)cc1Cl` (centres unmarked) [Example 6.15.2, 2-(2-chloro-4-(trifluoromethyl)phenoxy)-1-(5-(1,3,5-trimethyl-1H-pyrazol-4-yl)-7,8-dihydrothiazolo-[2′,3′:2,3]imidazo[4,5-c]pyridin-6(5H)-yl)ethanone] as the compound, how does the IC50 read?
A: 48 nM

Q: For `Cc1nn2c3c(nc2s1)CCN(C(=O)COc1ccc(CN2CCOCC2)nc1Cl)C3c1ccc(Cl)cc1F` (centres unmarked) [Example 1.4.1, 1-(5-(4-chloro-2-fluorophenyl)-2-methyl-7,8-dihydro-[1,3,4]thiadiazolo[2′,3′:2,3]imidazo[4,5-c]pyridin-6(5H)-yl)-2-((2-chloro-6-(morpholinomethyl)pyridin-3-yl)oxy)ethanone], which IC50 is on record?
A: 9 nM
